Format in all cases: cell-based, human
For experiment [1], the system named is γH2AX. Nature of the experiment: Western blot, γH2AX in RPE1-hTERT-cMYC-ER cells (replication stress). The conditions noted are these: 72 h; NZ-175 at 100 nM with 4-OHT. As for the experimental part:
(§1) FIG. 15. NZ-175 rescues oncogenic c-MYC induced replication stress (100 nM, 72 h) (A) Western blot of RPE1-hTERT-cMYC-ER treated with 4-OHT and/or NZ-175 at 100 nM for 72 hours. 4-OHT treatment simulates oncogenic c-MYC-induced replication stress, observed by upregulation of phospho-CHK1 (S345), pRPA (S4/S8) and γH2AX. […] Quantification of blot is shown for pCHK1 […] (B), pRPA (S4/S8) (C), and YH2AX (D). n=3, mean±SEM, *p<0.05, ** p<0.01, *** p<0.001.
(§2) Cells were homogenised in protein lysis buffer consisting of 0.1 M Tris pH 8.0, 0.1 M NaCl, 5% glycerol, IGEPAL® CA-630 (#18896. Sigma-Aldrich) and 5 mM EDTA, 0.1 M N-ethyl maleimide (ThermoFisher, #23030) and protease inhibitor (Cell Signalling Technologies, #5871). Protein concentrations were determined using the BCA assay to ensure equal loading. […] The membranes were immunoblotted with primary antibodies, overnight at 4° C. […]
(§3) Membranes were then incubated with horseradish peroxidase (HRP)-conjugated secondary antibodies (Rabbit #7074 and Mouse #7076) purchased from Cell Signalling Technologies for 1 hour and the HRP signal was detected using EZ-ECL Enhanced Chemiluminescence Detection Kit for HRP (#20-500-500, Sartorius), and imaged with an Alliance Q9 Advanced (UVITec). […]
(§4) To see if NZ-175 could rescue this phenotype, RPE1-hTERT-cMYC-ER cells treated with 4-OHT and/or 100 nM NZ-175 for 72 h were analysed by Western blotting (FIG. 15A). […]

The test system of experiment [2] is pRPA (S4/S8). The experiment in a line: Western blot, pRPA (S4/S8) in RPE1-hTERT-cMYC-ER cells (replication stress). The conditions noted are these: 72 h; NZ-175 at 100 nM with 4-OHT. As for the experimental part: as §1, §2, §3, §4
Experiment [3] deals with phospho-CHK1 (S345). The experiment in a line: Western blot, phospho-CHK1 in RPE1-hTERT-cMYC-ER cells (replication stress). The following applies: 72 h; NZ-175 at 100 nM with 4-OHT. As for the experimental part:
as §1, §2, §3, §4

For experiment [4], the system named is c-MYC controlled genes. The experiment in a line: RT-qPCR of c-MYC controlled genes in CAL51 cells. The conditions noted are these: 100 nM, 72 hours. As for the experimental part: FIG. 11. RT-qPCR quantification of expression of c-MYC controlled genes in CAL51 triple negative breast cancer cell line treated with DMSO, 100 nM (+)-JQ1 or 100 nM NZ-147 for 72 hours. […] MDM2 (A) and CCNE (B) are controlled by cMYC in oncogenic settings, PAICS (C) is a putative target of c-MYC, and eIF4E (D) is a known target of cMYC. n=3, *p<0.05, ** p<0.01, *** p<0.001.
RNA was extracted with the Qiagen RNeasy Mini kit following manufacturers protocol. RT-qPCR SYBR assay was carried out with Mesa Blue following manufacturers instructions, 80 ng RNA per well, experimental triplicates, BioRad CTX Connect qPCR machine. RNA levels were normalized to GAPDH. Experiments were done in biological triplicate. The primers used were as follows:
The levels of c-MYC controlled genes (determined using RT-qPCR) in CAL51 triple negative breast cancer cell line after treatment with DMSO, 100 nM (+)-JQ1 or 100 nM NZ-147 for 72 hours is shown in FIG. 11. In particular MDM2 (FIG. 11A) and CCNE (FIG. 11B) are controlled by cMYC in oncogenic settings, PAICS (FIG. 11C) is a putative target of c-MYC, and elF4E (FIG. 11D) is a known target of c-MYC.
(Quantitative PCR measures a nucleic acid by following its amplification.)

Experiment [5] deals with A549 cells. The experiment in a line: Cell viability assay (CellTiter Glo), A549. The conditions noted are these: A549, increasing concentrations. As to the method:
(§5) A549 and H1299 cells were seeded in OptiPlate-384 well plates and treated with increasing concentrations of (+)-JQ1 or NZ-147 from 0 μM to 10 µM in Example 8 and with increasing concentrations of NZ-175 from 0 µM to 10 µM in Example 9. Cells were treated for 120 h before using the luciferase based CellTiter Glo assay (Promega) to measure cell viability.
(§6) Cell viability assay was performed in A549 and H1299 cells, which were treated with different concentrations of (+)-JQ1 or NZ-147 at 100 nM for 72 hours (FIG. 10B).
(§7) Cell viability assay was performed in A549 and H1299 cells, which were treated with different concentrations of NZ-147 at 100 nM for 72 hours (FIG. 16B).

Experiment [6] concerns H1299 cells. The experiment in a line: Cell viability assay (CellTiter Glo), H1299. The following applies: H1299, increasing concentrations. As to the method: as §5, §6, §7
In experiment [7] the test system is p-Ub (S65). Nature of the experiment: Western blot, p-Ub (S65) in PINK-null PD patient fibroblasts. As to the method: (§8) FIG. 7. ULKTACs restore mitophagic activity in PINK-null PD patient fibroblasts (A) Western blot of patient derived fibroblasts, healthy control vs. PINK null, treated with […] NZ-65 or NZ-66 for 18 h or 10 μM FCCP for 2 h and probed for total Ub, pUb(S65), Mfn2 and b-Actin with quantification for the changes in the pUB (S65): Total Ub ratio shown in (B) and Mfn2 (C), respectively normalised to b-Actin. (D) Representative immunofluorescence of primary human fibroblasts isolated from wild type controls and PINK-null Parkinson's disease patients, treated with 10 µM FCCP, 1 μM NZ-65 or 1 μM NZ-66 and immunostained for TOM20 and ULK1; counterstained with Alexa 488 and Alexa 568 antibodies. Nuclei stained with Hoechst 33342. The quantification of these immunofluorescence experiments is shown in (E). Data shown are mean±SEM, n=3, *** p<0.001, two-way ANOVA with Tukey's multiple comparisons test.
as §2
(Immunoblotting shows a protein as a band on a membrane.)

Experiment [8] deals with p-Ub (S65). The experiment in a line: Western blot, p-Ub (S65) in WT fibroblasts. The following applies: 10 μM FCCP, 2 h. As to the method: as §8, §2
Experiment [9] relates to c-MYC. The experiment in a line: c-MYC immunofluorescence in hTERT-cMYC-ER expressing RPE1 cells. The following applies: 100 nM, 72 hours, 4-OHT and/or compound. As to the method: FIG. 9. (A) Schematic representation of hTERT-cMYC-ER expressing RPE1 cells. Treatment with 4-hydroxytamoxifen (4-OHT) translocates c-MYC-ER from the cytoplasm into the nucleus, simulating oncogenic c-MYC. (B) Immunofluorescence images of hTERT-cMYC-ER expressing RPE1 cells treated with DMSO, (+)-JQ1 or NZ-147 at 100 nM for 72 hours, each with or without 4-OHT.
RPE1-hTERT-c-MYC-ER cells were seeded in a 384 well PerkinElmer CellCarrier Ultra plate. In Example 8, cells were treated for 72 hours with DMSO, (+)-JQ1±4-OHT, or, NZ-147±4-OHT. In Example 9, cells were treated for 72 hours with 4-OHT, NZ-175, both, or neither. Thereafter, in both Examples 8 and 9, cells were fixed with 4% paraformaldehyde (PFA) in phosphate buffered saline (PBS) and blocked with 10% FBS and 0.1% Triton in PBS. Plates were incubated at 4° C. overnight, with 1:500 rabbit anti-c-MYC (D84C12) rabbit monoclonal antibody (#5605, Cell Signalling Technologies). The following day, plates were incubated with 1:1000 goat anti-rabbit Alexa 488 (ThermoFisher Scientific, #A-11008) and 1.62 μM Hoechst 33342 at room temperature for 1 hour before imaging. Excitation and emission spectra for each channel are as follows: Hoechst 33342=405/435-480 nm, Alexa 488=488/500-550 nm. Images were acquired at 40× and 63× magnification with water immersion lens.

Experiment [10] has as its system c-MYC. Nature of the experiment: Western blot, c-MYC in RPE1-hTERT-cMYC-ER cells. The following applies: 100 nM, 72 h, 4-OHT and/or compound. As for the experimental part: (§9) FIG. 12. c-MYC and MAX degradation enabled by NZ-175. (A) Schematic representation of hTERT-cMYC-ER expressing RPE1 cells. Treatment with 4-hydroxytamoxifen (4-OHT) translocates c-MYC-ER from the cytoplasm into the nucleus, simulating oncogenic c-MYC. (B) Western blot of RPE1-hTERT-cMYC-ER treated with 4-OHT and/or 100 nM NZ-175 for 72 hours. Quantification of c-MYC-ER (C), c-MYC (D) and MAX (E).
as §2, §3
(§10) RPE1-hTERT-cMYC-ER cells were treated with 4-OHT and/or 100 nM NZ-175 for 72 h and analysed by Western blotting (FIG. 12A). The levels of c-MYC-ER (FIG. 12B), c-MYC (FIG. 12C) and MAX (FIG. 12D) were quantified.

The test system of experiment [11] is H1299 cells. Nature of the experiment: Colony formation assay, H1299. The conditions noted are these: H1299, 100 nM, 72 hours. As to the method: (§11) A549 and H1299 cells were seeded in 12 well plates at approximately 100 cells per well. In Example 8, wells were treated with DMSO, (+)-JQ1 or NZ-147. In Example 9, cells were treated with DMSO or NZ-175. Colonies were allowed to form over 120 h. Cells were fixed and stained with crystal violet staining solution, prepared in 70% ethanol.
(§12) A colony formation assay was performed in A549 and H1299 cells, which were treated with DMSO, (+)-JQ1 or NZ-147 at 100 nM for 72 hours and stained with crystal violet (FIG. 10A).
(§13) A colony formation assay was performed in A549 and H1299 cells, which were treated with DMSO or NZ-175 at 100 nM for 72 hours and stained with crystal violet (FIG. 16A).

The subject of experiment [12] is A549 cells. The experiment in a line: Colony formation assay, A549. The following applies: A549, 100 nM, 72 hours. As for the experimental part: as §11, §12, §13
Experiment [13] has as its system MAX. The experiment in a line: Western blot, MAX in RPE1-hTERT-cMYC-ER cells. The following applies: 100 nM, 72 h, 4-OHT and/or compound. As to the method:
as §9, §2, §3, §10

On to “4-hydroxytamoxifen [4-OHT, reference compound]”, for which, in experiment [1], the “γH2AX, replication stress” value was “upregulation”. The “pRPA (S4/S8), replication stress” value in experiment [2] is given as “upregulation”. Further, the “phospho-CHK1 (S345), replication stress” value in experiment [3] is “upregulation”.
Regarding `Cc1sc2c(c1C)C(c1ccc(Cl)cc1)=N[C@@H](CC(=O)OC(C)(C)C)c1nnc(C)n1-2` [(+)-JQ1, reference compound], the “expression of c-MYC controlled genes (MDM2, CCNE, PAICS, eIF4E)” value in [4] is recorded as “reduces the expression of c-MYC controlled genes”. Also, the “percentage of live cells” value in experiment [5] and in [6] was “dose-dependent decrease in the percentage of live cells” in each case.
In the case of `N#CC(C#N)=NNc1ccc(OC(F)(F)F)cc1` [FCCP], the figures for the “p-Ub (S65) levels” value in experiment [7] and in experiment [8] were “does not occur in the PINK-null cells” and “substantial increase in p-Ub (S65) levels”, respectively.
As for `C/C=C/C(=O)NCc1ccc(C(=O)Nc2ccccc2Oc2ccc(OCC(=O)NCCOCCOCCOCCn3cc(COc4ccc([C@@H](NC(=O)Nc5cc(C(F)(F)F)cc(C(F)(F)F)c5)C(=O)Nc5ccc(F)cc5F)cc4)nn3)cc2)cc1` [NZ-175, (R)-4-(crotonylamidomethyl)-N-(2-(4-((14-(4-((4-(1-(3-(3,5-bis(trifluoromethyl)phenyl)ureido)-2-((2,4-difluorophenyl)amino)-2-oxoethyl)phenoxy)methyl)-1H-1,2,3-triazol-1-yl)-2-oxo-6,9,12-trioxa-3-azatetradecyl)oxy)phenoxy)phenyl) benzamide], the “γH2AX, replication stress” value in [1] was “rescues this phenotype”. Besides, the “c-MYC degradation (time-course immunofluorescence)” value in [9] is given as “c-MYC degradation”. The “degradation of c-MYC” value in [10] was “initiates degradation of c-MYC”. The colony formation result in experiment [11] and in experiment [12] was “Fewer colonies formed” each time. Also, in experiment [2], the “pRPA (S4/S8), replication stress” value was “rescues this phenotype”. In experiment [3], the “phospho-CHK1 (S345), replication stress” value is listed as “rescues this phenotype”. Further, the “degradation of MAX” value in experiment [13] is listed as “proximal degradation of MAX”.

For the origin of these results see patent publication US20260335323A1, “CHIMERIC MOLECULE” (UCL Business Ltd, priority 2023, published 2026).
